# Data: US20100261682A1, “Method and Means for the Treatment of Cachexia” (Bioneris AB, priority 2007, published 2010)
# What was measured:
# [1] = test system: MAC16 tumour-bearing mice; assay: Body weight, food and water intake in MAC16 tumour-bearing mice treated with lipid soluble alpha-trinositol (Example 5); assay type: in vivo, NMRI mice; conditions: for weight loss compared to the control group: 5 days
# Excerpt: Materials. Lipid soluble alpha trinositol (1-D-tri-O-hexanoyl-myo-inositol 1,2,6-triphosphate) was formed by further esterification of 1-D-Myo-inositol 1,2,6-triphosphate.
# (§1) Animals. Pure strain male NMRI mice (average body weight 25 g) were transplanted with fragments of the MAC16 tumour subcutaneously into the flank by means of a trochar, selected from donor animals with established weight loss (Bibby M C et al., Characterization of transplantable adenocarcinoma in the mouse colon producing cachexia in the recipient animals. J Natl Cancer Inst 78 (1987) 539-546). Transplanted animals were given a rat and mouse breeding diet (Special Diet Services, Witham, UK) and water at lib. Weight loss was evident 10 to 12 days after tumour implantation. Just prior to the development of weight loss […] were randomized into three groups of six animals each.
# (§2) Administration of alpha-trinositol. A first experiment was started when the animals had lost about 5% of body weight. Aliquots of lipid soluble alpha-trinositol stock solution corresponding to doses of 6 mg/kg body weight and 8 mg/kg body weight for a 25 g animal were administered subcutaneously three times per day at 8.00, 12.00 and 16.00 hrs. The third group (control) was given an intravenous injection of 10 μl of PBS. Body weight (FIG. 26), tumour volume, and food (FIG. 27) and water (FIG. 28) intake were determined daily (for 5 days) after the last injection. Day 0 is the day of transplant and day 1 is the start of the experiment. The experiment was terminated on day 5 due to loss of controls.
# [2] = test system: MAC16 tumour; assay: Tumour volume in MAC16 tumour-bearing mice treated with lipid soluble alpha-trinositol (Example 5); assay type: in vivo, NMRI mice; conditions: 6 mg/kg and 8 mg/kg groups versus control
# Excerpt: as §1, §2
compound,measurement,setting,value
"CCCCCC(=O)O[C@@H]1[C@@H](OC(=O)CCCCC)[C@@H](OP(=O)(O)O)[C@@H](OP(=O)(O)O)[C@H](OP(=O)(O)O)[C@H]1OC(=O)CCCCC [lipid soluble alpha trinositol, 1-D-tri-O-hexanoyl-myo-inositol 1,2,6-triphosphate]",weight loss compared to the control group,[1]; 6 mg/kg s.c. three times per day,significantly lower weight loss
same,weight loss compared to the control group,[1]; 8 mg/kg s.c. three times per day,significantly lower weight loss
same,average weight loss in 5 days,"[1]; highest concentration (8 mg/kg), control about 6 g",about 3 g
same,increase in tumour volume,[2],slightly higher in the control group
